Laboratory results from article PMC2770256 (Journal of molecular biology, 2009).

Target: Ypt1p (His6-Ypt1p 1-180) (Saccharomyces cerevisiae, UniProt P01123)
Assay: stopped-flow fluorescence
Assay type: binding
Details: pH 8.0, 25 °C, 5 mM MgCl2; labelled compound; nucleotide-free Ypt1p; association rate constant

Chain of Ypt1p (His6-Ypt1p 1-180) (P01123 1-180): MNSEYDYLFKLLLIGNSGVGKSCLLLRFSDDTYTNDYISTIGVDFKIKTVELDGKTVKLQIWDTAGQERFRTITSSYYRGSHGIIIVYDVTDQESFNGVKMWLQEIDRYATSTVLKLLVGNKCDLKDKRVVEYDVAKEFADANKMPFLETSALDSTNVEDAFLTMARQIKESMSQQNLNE

- Value: 0.096 (±0.004) μM^-1 s^-1
SMILES: CNc1ccccc1C(=O)O[C@H]1C[C@H](n2cnc3c(=O)[nH]c(N)nc32)O[C@@H]1COP(=O)(O)OP(=O)(O)O [mant-dGDP]
